From patent US20240041042A1, “1-(PYRIDYL)-5-AZINYLPYRAZOLE DERIVATIVES, AND THEIR USE FOR CONTROL OF UNDESIRED PLANT GROWTH” (Bayer Aktiengesellschaft, priority 2020, published 2024)
Like-named read-outs stand apart in the source and are kept apart here.

Tests used:
Format in all cases: in vivo
Lolium rigidum (LOLRI) [1] = test: Post-emergence herbicidal action against LOLRI
In short: (§1)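 Doses of 320 g/ha or lower, suffixes a, b and c marking different dosages, were applied post-emergence at the one-leaf stage in 600 l/ha water with 0.5% additive. Damage was assessed visually after about 3 weeks in the greenhouse.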

[2] = system: Matricaria inodora (MATIN); test: Pre-emergence herbicidal action against MATIN
In short: (§2)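 Greenhouse pot trial: seeds sown, soil-covered, sprayed before emergence with compound in water (0.5% additive; 600 l/ha; ≤320 g/ha). Scoring visual, ~3 weeks, 0–100% scale vs untreated.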

[3] = system: Alopecurus myosuroides (ALOMY); test: Pre-emergence herbicidal action against ALOMY; details: scored visually after about 3 weeks, 100% = plants have died
In short: as §2

[4] = system: Verconica persica (VERPE); test: Post-emergence herbicidal action against VERPE
In short: as §1

[5] = system: Alopecurus myosuroides (ALOMY); test: Post-emergence herbicidal action against ALOMY; details: visual rating about 3 weeks after treatment vs untreated controls (100% = plants have died, 0% = like control plants)
In short: as §1

Viola tricolor (VIOTR) [6] = test: Post-emergence herbicidal action against VIOTR
In short: as §1

[7] = system: Echinochloa crus-galli (ECHCG); test: Post-emergence herbicidal action against ECHCG
In short: as §1

Lolium rigidum (LOLRI) [8] = test: Pre-emergence herbicidal action against LOLRI; details: dosage 320 g/ha
In short: as §2

Viola tricolor (VIOTR) [9] = test: Pre-emergence herbicidal action against VIOTR
In short: as §2

Zea mays (ZEAMX) [10] = details: pre-emergence, 80 g/ha, crop plant compatibility, in comparison to untreated controls
Text: (§3) Seeds of monocotyledonous and dicotyledonous weed plants and crop plants are placed in plastic or organic planting pots and covered with soil. The compounds of the invention, formulated in the form of wettable powders (WP) or as emulsion concentrates (EC), are then applied to the surface of the covering soil as aqueous suspension or emulsion with addition of 0.5% additive at a water application rate equivalent to 600 l/ha. After the treatment, the pots are placed in a greenhouse and kept under good growth conditions for the trial plants. After about 3 weeks, the effect of the preparations is scored visually in comparison with untreated controls as percentages. For example, 100% activity=the plants have died, 0% activity=like control plants.
The observed effects on selected crop plants are reported here in comparison to the untreated controls (values in %). The appendices “a” “b” and “c” give differentiation by dosage used with otherwise the same crop plants tested.

Setaria viridis (SETVI) [11] = test: Pre-emergence herbicidal action against SETVI
In short: as §2

[12] = system: Pharbitis purpurea (PHBPU); test: Post-emergence herbicidal action against PHBPU
In short: as §1

[13] = system: Verconica persica (VERPE); test: Pre-emergence herbicidal action against VERPE; details: dosage 320 g/ha
In short: as §2

[14] = system: Matricaria inodora (MATIN); test: Post-emergence herbicidal action against MATIN; details: dosage 320 g/ha
In short: as §1

[15] = system: Polygonum convolvulus (POLCO); test: Pre-emergence herbicidal action against POLCO
In short: as §2

Avena fatua (AVEFA) [16] = test: Post-emergence herbicidal action against AVEFA; details: visual rating about 3 weeks after treatment
In short: as §1

[17] = system: Echinochloa crus-galli (ECHCG); test: Pre-emergence herbicidal action against ECHCG
In short: as §2

Oryza sativa (ORYSA) = details: crop plant compatibility
In short: (§4)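 Effects were read visually as % versus untreated controls (0% = no effect, 100% = death) about 3 weeks post-treatment. Application was a post-emergence spray at the one-leaf stage of WP/EC formulations with 0.5% additive at 600 l/ha. Different dosages are denoted a, b and c.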

Zea mays (ZEAMX) [18] = details: for Post-emergence action against ZEAMX in %: crop plant compatibility, effect vs untreated controls
In short: as §4

[19] = system: Amaranthus retroflexus (AMARE); test: Pre-emergence herbicidal action against AMARE; details: visual scoring after about 3 weeks vs untreated controls
In short: as §2

[20] = system: Amaranthus retroflexus (AMARE); test: Post-emergence herbicidal action against AMARE
In short: as §1

Avena fatua (AVEFA) [21] = test: Pre-emergence herbicidal action against AVEFA; details: 320 g/ha, visual scoring after about 3 weeks vs untreated controls
In short: as §2

[22] = system: Polygonum convolvulus (POLCO); test: Post-emergence herbicidal action against POLCO; details: dosage 320 g/ha
In short: as §1

[23] = system: Pharbitis purpurea (PHBPU); test: Pre-emergence herbicidal action against PHBPU; details: dosage 320 g/ha
In short: as §2

[24] = system: Abutilon theophrasti (ABUTH); test: Post-emergence herbicidal action against ABUTH; details: visual rating about 3 weeks after treatment vs untreated controls (100% = plants have died, 0% = like control plants)
In short: as §1

Setaria viridis (SETVI) [25] = test: Post-emergence herbicidal action against SETVI; details: dosage 320 g/ha
In short: as §1

[26] = system: Digitaria sanguinalis (DIGSA); test: Pre-emergence herbicidal action against DIGSA
Text: as §3
Tables A1 to A13 below show the effects of selected compounds of the general formula (I) on various harmful plants and at an application rate corresponding to 320 g/ha or lower, which were obtained by the experimental procedure mentioned above. The appendices “a”, “b” and “c” give differentiation by dosage used with otherwise the same harmful plants tested.

[27] = system: Digitaria sanguinalis (DIGSA); test: Post-emergence herbicidal action against DIGSA; details: 80 g/ha, visual rating about 3 weeks after treatment
In short: as §1

[28] = 80 g/ha, visual rating about 3 weeks after treatment vs untreated controls (100% = plants have died, 0% = like control plants)
[29] = 320 g/ha, visual rating about 3 weeks after treatment
[30] = 80 g/ha, visual scoring after about 3 weeks vs untreated controls

SMILES | Post-emergence action against LOLRI in % (Lolium rigidum (LOLRI) [1]; dosage 320 g/ha) | Pre-emergence action against MATIN in % ([2]; dosage 80 g/ha) | Pre-emergence action against MATIN in % ([2]; dosage 320 g/ha) | Pre-emergence action against ALOMY ([3]; 80 g/ha) | Pre-emergence action against ALOMY ([3]; 320 g/ha) | Post-emergence action against VERPE in % ([4]; 320 g/ha, VERPE) | Post-emergence action against ALOMY in % ([5]; 320 g/ha) | Post-emergence action against VIOTR in % (Viola tricolor (VIOTR) [6]; 80 g/ha) | Post-emergence action against VIOTR in % (Viola tricolor (VIOTR) [6]; 320 g/ha) | Post-emergence action against ECHCG in % ([7]; dosage 80 g/ha) | Post-emergence action against ECHCG in % ([7]; dosage 320 g/ha) | Pre-emergence action against LOLRI in % (Lolium rigidum (LOLRI) [8]) | Pre-emergence action against VIOTR in % (Viola tricolor (VIOTR) [9]; 320 g/ha, Viola tricolor) | Pre-emergence action against SETVI in % (Setaria viridis (SETVI) [11]; dosage 320 g/ha) | Post-emergence action against PHBPU in % ([12]; dosage 320 g/ha) | Pre-emergence action against VERPE in % [13] | Post-emergence action against MATIN in % [14] | Pre-emergence action against POLCO in % ([15]; dosage 320 g/ha) | Post-emergence action against AVEFA in % (Avena fatua (AVEFA) [16]; 320 g/ha) | Pre-emergence action against AMARE in % ([19]; 80 g/ha) | also measured
O=C(O)COc1nn(-c2nc(F)ccc2F)c(-c2ccc(F)nc2)c1Br [Example I-334] | 90% | 80% | 100% | 80% | 90% | 80% | 90% | 80% | 80% | 80% | 90% | 90% | 90% | 90% | 80% | 80% | 80% | 90% | 80% | 90% | Pre-emergence action against ZEAMX in % (Zea mays (ZEAMX) [10]): 20%; Pre-emergence action against SETVI in % (Setaria viridis (SETVI) [11]; dosage 80 g/ha): 90%; Pre-emergence action against ECHCG in % ([17]; dosage 80 g/ha): 80%; Pre-emergence action against ECHCG in % ([17]; dosage 320 g/ha): 90%; Post-emergence action against ORYSA in % (Oryza sativa (ORYSA); 80 g/ha, effect in comparison to untreated controls): 20%; Post-emergence action against ZEAMX in % (Zea mays (ZEAMX) [18]; 80 g/ha): 10%; Post-emergence action against ZEAMX in % (Zea mays (ZEAMX) [18]; 320 g/ha): 20%; Pre-emergence action against AMARE in % ([19]; 320 g/ha): 100%; Post-emergence action against AMARE in % [20, 28]: 80%; Post-emergence action against AMARE in % [20, 29]: 80%; Pre-emergence action against AVEFA in % (Avena fatua (AVEFA) [21]): 90%; Post-emergence action against POLCO in % [22]: 80%; Pre-emergence action against PHBPU in % [23]: 90%; Post-emergence action against ABUTH in % ([24]; 80 g/ha): 80%; Post-emergence action against ABUTH in % ([24]; 320 g/ha): 80%
CCOC(=O)COc1nn(-c2ccccn2)c(-c2ccnc(F)c2)c1Br [Example I-01, Ethyl {[4-bromo-5-(2-fluoropyridin-4-yl)-1-(pyridin-2-yl)-1H-pyrazol-3-yl]oxy}acetate] | 90% | – | 100% | – | 100% | 90% | 100% | 90% | 100% | 80% | 90% | 100% | 90% | 100% | 80% | 90% | 90% | 90% | 100% | 80% | Post-emergence action against LOLRI in % (Lolium rigidum (LOLRI) [1]; dosage 80 g/ha): 80%; Post-emergence action against VERPE in % ([4]; dosage 80 g/ha): 80%; Post-emergence action against ALOMY in % ([5]; 80 g/ha): 100%; Post-emergence action against SETVI in % (Setaria viridis (SETVI) [25]): 80%; Post-emergence action against PHBPU in % ([12]; dosage 80 g/ha): 80%; Post-emergence action against AVEFA in % (Avena fatua (AVEFA) [16]; 80 g/ha): 90%; Pre-emergence action against ECHCG in % ([17]; dosage 320 g/ha): 90%; Pre-emergence action against AMARE in % ([19]; 320 g/ha): 90%; Post-emergence action against AMARE in % [20, 29]: 80%; Pre-emergence action against AVEFA in % (Avena fatua (AVEFA) [21]): 80%; Pre-emergence action against DIGSA in % [26, 30]: 80%; Pre-emergence action against DIGSA in % ([26]; dosage 320 g/ha): 100%; Post-emergence action against ABUTH in % ([24]; 320 g/ha): 80%
CC(C)=NOC(=O)COc1nn(-c2ncccc2F)c(-c2ccc(F)nc2)c1Br [Example I-45] | – | 80% | – | 90% | – | – | – | – | – | – | – | – | – | – | – | – | – | – | – | 90% | Post-emergence action against VERPE in % ([4]; dosage 80 g/ha): 80%; Post-emergence action against ALOMY in % ([5]; 80 g/ha): 90%; Pre-emergence action against VIOTR in % (Viola tricolor (VIOTR) [9]; dosage 80 g/ha): 90%; Pre-emergence action against POLCO in % ([15]; dosage 80 g/ha): 90%; Post-emergence action against AVEFA in % (Avena fatua (AVEFA) [16]; 80 g/ha): 80%; Post-emergence action against DIGSA in % [27]: 90%; Pre-emergence action against ECHCG in % ([17]; dosage 80 g/ha): 90%; Post-emergence action against ORYSA in % (Oryza sativa (ORYSA); 20 g/ha, effect vs untreated controls): 10%; Post-emergence action against ZEAMX in % (crop plant compatibility) (Zea mays (ZEAMX) [18]; 20 g/ha, ZEAMX, effect in comparison to untreated controls): 0%; Post-emergence action against ZEAMX in % (Zea mays (ZEAMX) [18]; 80 g/ha): 10%; Post-emergence action against AMARE in % [20, 28]: 80%; Pre-emergence action against DIGSA in % [26, 30]: 100%; Post-emergence action against ABUTH in % ([24]; 80 g/ha): 80%
